Measured values taken from patent US20250154686A1, “COMPOUND LIBRARY” (CHUGAI SEIYAKU KABUSHIKI KAISHA, priority 2021, published 2025).

Target: T1, Bcl-2 protein (Recombinant Human Bcl-2 Protein) (Homo sapiens, UniProt P10415)
T1 construct: purchased Novus Biologicals NBP2-34889
Assay: AS-MS evaluation of binding of the Example 4 mixture library (1200 compounds/well) to Bcl-2, ASMS ratio (%)
Settings: AS-MS, Example 4 mixture library; for ASMS ratio (%) n = 1: Bcl-2, replicate n = 1; for ASMS ratio (%) n = 2: Bcl-2, replicate n = 2
Method in brief: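 A pooled 1200-compound mixture (20 nM each final) was incubated with 20 μM recombinant human Bcl-2 in pH 7.4 Tris-HCl buffer with NaCl, Tween-20 and DTT for 1 h at 23° C. in the dark. Bound ligands were separated by spin-column SEC and measured by reverse-phase LC/MS; ASMS ratio (%) was calculated against protein-free unfiltered standard and protein-free SEC blank.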

T1 sequence (P10415 whole entry): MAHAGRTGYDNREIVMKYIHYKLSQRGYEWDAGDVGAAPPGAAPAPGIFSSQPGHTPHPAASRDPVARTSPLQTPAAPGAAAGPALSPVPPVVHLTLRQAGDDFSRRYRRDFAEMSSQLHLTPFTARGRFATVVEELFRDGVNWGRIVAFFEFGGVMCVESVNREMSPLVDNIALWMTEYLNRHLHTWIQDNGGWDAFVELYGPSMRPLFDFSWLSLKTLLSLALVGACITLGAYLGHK

Structure (SMILES)	ASMS ratio (%) n = 1 [%]	ASMS ratio (%) n = 2 [%]
CCOc1cncc(-c2ccccc2CN2CCN(c3ccc(C(=O)NS(=O)(=O)c4ccc(NCCSc5ccccc5)c(C(F)(F)F)c4)nn3)CC2)c1 [Compound B2R072-01]	21.4	11.4
CCOc1cccc(-c2ccc(CN3CCN(c4ccc(C(=O)NS(=O)(=O)c5ccc(NCCSc6ccccc6)c(C(F)(F)F)c5)nn4)CC3)cc2C)c1 [Compound B2R073-01, 6-[4-[[4-(3-Ethoxyphenyl)-3-methylphenyl]methyl]piperazin-1-yl]-N-[4-(2-phenylsulfanylethylamino)-3-(trifluoromethyl)phenyl]sulfonylpyridazine-3-carboxamide]	24.0	0.0
CCOc1cncc(-c2ccc(CN3CCN(c4ccc(C(=O)NS(=O)(=O)c5ccc(NCCSc6ccccc6)c(C(F)(F)F)c5)nn4)CC3)cc2C)c1 [Compound B2R074-01, 6-[4-[[4-(5-ethoxypyridin-3-yl)-3-methylphenyl]methyl]piperazin-1-yl]-N-[4-(2-phenylsulfanylethylamino)-3-(trifluoromethyl)phenyl]sulfonylpyridazine-3-carboxamide]	22.4	25.
CCOc1cccc(-c2ccc(CN3CCN(c4ccc(C(=O)NS(=O)(=O)c5ccc(NCCSc6ccccc6)c(C(F)(F)F)c5)nn4)CC3)c(CC)c2)c1 [Compound B2R075-01, 6-[4-[[4-(3-Ethoxyphenyl)-2-ethylphenyl]methyl]piperazin-1-yl]-N-[4-(2-phenylsulfanylethylamino)-3-(trifluoromethyl)phenyl]sulfonylpyridazine-3-carboxamide]	8.6	0.0
CCOc1cncc(-c2ccc(CN3CCN(c4ccc(C(=O)NS(=O)(=O)c5ccc(NCCSc6ccccc6)c(C(F)(F)F)c5)nn4)CC3)c(CC)c2)c1 [Compound B2R076-01]	3.9	19.7
CCOc1cccc(-c2ccc(CN3CCN(c4ccc(C(=O)NS(=O)(=O)c5ccc(NCCSc6ccccc6)c(C(F)(F)F)c5)nn4)CC3)cc2F)c1 [Compound B2R077-01, 6-[4-[[4-(3-Ethoxyphenyl)-3-fluorophenyl]methyl]piperazin-1-yl]-N-[4-(2-phenylsulfanylethylamino)-3-(trifluoromethyl)phenyl]sulfonylpyridazine-3-carboxamide]	0.0	0.0
CCOc1cncc(-c2ccc(CN3CCN(c4ccc(C(=O)NS(=O)(=O)c5ccc(NCCSc6ccccc6)c(C(F)(F)F)c5)nn4)CC3)cc2F)c1 [Compound B2R078-01, 6-[4-[[4-(5-Ethoxypyridin-3-yl)-3-fluorophenyl]methyl]piperazin-1-yl]-N-[4-(2-phenylsulfanylethylamino)-3-(trifluoromethyl)phenyl]sulfonylpyridazine-3-carboxamide]	15.8	11.7
CCOc1cncc(-c2ccc(CN3CCN(c4ccc(C(=O)NS(=O)(=O)c5ccc(NCCSc6ccccc6)c(C(F)(F)F)c5)nn4)CC3)c(OC)c2)c1 [Compound B2R080-01, 6-[4-[[4-(5-Ethoxypyridin-3-yl)-2-methoxyphenyl]methyl]piperazin-1-yl]-N-[4-(2-phenylsulfanylethylamino)-3-(trifluoromethyl)phenyl]sulfonylpyridazine-3-carboxamide]	16.7	21.2
CCOc1cccc(-c2cc(CN3CCN(c4ccc(C(=O)NS(=O)(=O)c5ccc(NCCSc6ccccc6)c(C(F)(F)F)c5)nn4)CC3)cc(OCC)c2)c1 [Compound B2R081-01]	21.1	−8.8
CCOc1cncc(-c2cc(CN3CCN(c4ccc(C(=O)NS(=O)(=O)c5ccc(NCCSc6ccccc6)c(C(F)(F)F)c5)nn4)CC3)cc(OCC)c2)c1 [Compound B2R082-01]	0.0	0.0
CCOc1cccc(-c2cc(CN3CCN(c4ccc(C(=O)NS(=O)(=O)c5ccc(NCCSc6ccccc6)c(C(F)(F)F)c5)nn4)CC3)cc(OC(C)C)c2)c1 [Compound B2R083-01, 6-[4-[[3-(3-Ethoxyphenyl)-5-propan-2-yloxyphenyl]methyl]piperazin-1-yl]-N-[4-(2-phenylsulfanylethylamino)-3-(trifluoromethyl)phenyl]sulfonylpyridazine-3-carboxamide]	31.9	−11.1
CCOc1cncc(-c2cc(OC)c(CN3CCN(c4ccc(C(=O)NS(=O)(=O)c5ccc(NCCSc6ccccc6)c(C(F)(F)F)c5)nn4)CC3)c(OC)c2)c1 [Compound B2R086-01, 6-[4-[[4-(5-Ethoxypyridin-3-yl)-2,6-dimethoxyphenyl]methyl]piperazin-1-yl]-N-[4-(2-phenylsulfanylethylamino)-3-(trifluoromethyl)phenyl]sulfonylpyridazine-3-carboxamide]	0.0	0.0
CCOc1cccc(-c2cc(CN3CCN(c4ccc(C(=O)NS(=O)(=O)c5ccc(NCCSc6ccccc6)c(C(F)(F)F)c5)nn4)CC3)cc(C(F)(F)F)c2)c1 [Compound B2R087-01]	3.8	7.1
CCOc1cncc(-c2cc(CN3CCN(c4ccc(C(=O)NS(=O)(=O)c5ccc(NCCSc6ccccc6)c(C(F)(F)F)c5)nn4)CC3)cc(C(F)(F)F)c2)c1 [Compound B2R088-01, 6-[4-[[3-(5-Ethoxypyridin-3-yl)-5-(trifluoromethyl)phenyl]methyl]piperazin-1-yl]-N-[4-(2-phenylsulfanylethylamino)-3-(trifluoromethyl)phenyl]sulfonylpyridazine-3-carboxamide]	35.3	13.1
CCOc1cccc(-c2cc(CN3CCN(c4ccc(C(=O)NS(=O)(=O)c5ccc(NCCSc6ccccc6)c(C(F)(F)F)c5)nn4)CC3)cc(OC(F)(F)F)c2)c1 [Compound B2R089-01, 6-[4-[[3-(3-Ethoxyphenyl)-5-(trifluoromethoxy)phenyl]methyl]piperazin-1-yl]-N-[4-(2-phenylsulfanylethylamino)-3-(trifluoromethyl)phenyl]sulfonylpyridazine-3-carboxamide]	3.4	−9.2
CCOc1cncc(-c2cc(CN3CCN(c4ccc(C(=O)NS(=O)(=O)c5ccc(NCCSc6ccccc6)c(C(F)(F)F)c5)nn4)CC3)cc(OC(F)(F)F)c2)c1 [Compound B2R090-01, 6-[4-[[3-(5-Ethoxypyridin-3-yl)-5-(trifluoromethoxy)phenyl]methyl]piperazin-1-yl]-N-[4-(2-phenylsulfanylethylamino)-3-(trifluoromethyl)phenyl]sulfonylpyridazine-3-carboxamide]	22.4	5.3
CCOc1cccc(-c2ccc(CN3CCN(c4ccc(C(=O)NS(=O)(=O)c5ccc(NCCSc6ccccc6)c(C(F)(F)F)c5)nn4)CC3)c3ccccc23)c1 [Compound B2R091-01, 6-[4-[[4-(3-Ethoxyphenyl)naphthalen-1-yl]methyl]piperazin-1-yl]-N-[4-(2-phenylsulfanylethylamino)-3-(trifluoromethyl)phenyl]sulfonylpyridazine-3-carboxamide]	−3.5	1.8
CCOc1cncc(-c2ccc(CN3CCN(c4ccc(C(=O)NS(=O)(=O)c5ccc(NCCSc6ccccc6)c(C(F)(F)F)c5)nn4)CC3)c3ccccc23)c1 [Compound B2R092-01, 6-[4-[[4-(5-Ethoxypyridin-3-yl)naphthalen-1-yl]methyl]piperazin-1-yl]-N-[4-(2-phenylsulfanylethylamino)-3-(trifluoromethyl)phenyl]sulfonylpyridazine-3-carboxamide]	16.0	−1.3
CCOc1cccc(-c2csc(CN3CCN(c4ccc(C(=O)NS(=O)(=O)c5ccc(NCCSc6ccccc6)c(C(F)(F)F)c5)nn4)CC3)c2)c1 [Compound B2R093-01, 6-[4-[[4-(3-Ethoxyphenyl)thiophen-2-yl]methyl]piperazin-1-yl]-N-[4-(2-phenylsulfanylethylamino)-3-(trifluoromethyl)phenyl]sulfonylpyridazine-3-carboxamide]	56.5	0.0
CCOc1cncc(-c2csc(CN3CCN(c4ccc(C(=O)NS(=O)(=O)c5ccc(NCCSc6ccccc6)c(C(F)(F)F)c5)nn4)CC3)c2)c1 [Compound B2R094-01, 6-[4-[[4-(5-Ethoxypyridin-3-yl)thiophen-2-yl]methyl]piperazin-1-yl]-N-[4-(2-phenylsulfanylethylamino)-3-(trifluoromethyl)phenyl]sulfonylpyridazine-3-carboxamide]	18.8	11.9
CCOc1cccc(C#Cc2ccccc2CN2CCN(c3ccc(C(=O)NS(=O)(=O)c4ccc(NCCSc5ccccc5)c(C(F)(F)F)c4)nn3)CC2)c1 [Compound B2R095-01, 6-[4-[[2-[2-(3-Ethoxyphenyl)ethynyl]phenyl]methyl]piperazin-1-yl]-N-[4-(2-phenylsulfanylethylamino)-3-(trifluoromethyl)phenyl]sulfonylpyridazine-3-carboxamide]	42.2	5.5
